Data taken from the NIST ThermoML archive (doi:10.1021/je060271a).

Settings: 303.15 K, Liquid, Vibrating tube method

CCCCC(=O)OCC(COC(=O)CCCC)(COC(=O)CCCC)COC(=O)CCCC [pentaerythritol tetrapentanoate]
Settings	mass density [kg/m3]
13763 kPa	1019.6
13796 kPa	1019.5
13829 kPa	1019.6
13863 kPa	1019.6
13902 kPa	1019.7
13936 kPa	1019.7
13971 kPa	1019.7
14011 kPa	1019.6
14045 kPa	1019.6
14080 kPa	1019.8
14120 kPa	1019.8
14154 kPa	1019.7
14189 kPa	1019.8
14231 kPa	1019.8
14265 kPa	1019.9
14300 kPa	1019.8
14344 kPa	1019.8
14378 kPa	1020
14414 kPa	1019.9
14458 kPa	1019.9
14494 kPa	1020
14532 kPa	1020
14574 kPa	1020.1
14612 kPa	1020.1
14649 kPa	1020.1
14687 kPa	1019.9
14731 kPa	1020.2
14769 kPa	1020.1
14808 kPa	1020.2
14853 kPa	1020.2
14892 kPa	1020.2
14933 kPa	1020.3
14974 kPa	1020.3
15014 kPa	1020.2
15058 kPa	1020.3
15098 kPa	1020.3
15146 kPa	1020.4
15187 kPa	1020.4
15226 kPa	1020.4
15275 kPa	1020.5
15316 kPa	1020.3
15358 kPa	1020.6
15400 kPa	1020.5
15450 kPa	1020.5
15495 kPa	1020.6
15540 kPa	1020.6
15586 kPa	1020.7
15638 kPa	1020.7
15671 kPa	1020.6
15699 kPa	1020.6
15733 kPa	1020.9
15763 kPa	1020.8
15791 kPa	1020.7
15826 kPa	1020.8
15856 kPa	1020.8
15887 kPa	1020.7
15921 kPa	1020.8
15952 kPa	1020.9
15981 kPa	1021
16011 kPa	1020.9
16047 kPa	1020.9
16078 kPa	1021.1
16109 kPa	1021
16146 kPa	1020.9
16177 kPa	1021
16215 kPa	1021
16248 kPa	1021.1
16278 kPa	1021
16303 kPa	1021.1
16331 kPa	1021.1
16354 kPa	1021.1
16378 kPa	1021
16406 kPa	1021.2
16430 kPa	1021
16454 kPa	1021.3
16479 kPa	1021.2
16508 kPa	1021.2
16532 kPa	1021.2
16556 kPa	1021.2
16585 kPa	1021.3
16610 kPa	1021.3
16633 kPa	1021.2
16663 kPa	1021.4
16688 kPa	1021.3
16712 kPa	1021.3
16737 kPa	1021.4
16765 kPa	1021.3
16791 kPa	1021.4
16815 kPa	1021.3
16845 kPa	1021.5
16869 kPa	1021.5
16898 kPa	1021.4
16924 kPa	1021.4
16949 kPa	1021.4
16980 kPa	1021.5
17005 kPa	1021.5
17032 kPa	1021.6
17057 kPa	1021.4
17088 kPa	1021.6
17112 kPa	1021.6
17144 kPa	1021.6
17170 kPa	1021.5
17196 kPa	1021.7
17222 kPa	1021.6
17253 kPa	1021.6
17279 kPa	1021.5
17310 kPa	1021.7
17337 kPa	1021.7
17364 kPa	1021.7
17396 kPa	1021.8
17422 kPa	1021.8
17449 kPa	1021.8
17476 kPa	1021.8
17509 kPa	1021.7
17535 kPa	1021.7
17563 kPa	1021.8
17596 kPa	1021.8
17623 kPa	1021.8
17656 kPa	1022
17684 kPa	1022
17713 kPa	1021.9
17742 kPa	1021.9
17771 kPa	1021.9
17800 kPa	1021.9
17834 kPa	1021.9
17862 kPa	1022
17892 kPa	1022
17920 kPa	1022
17954 kPa	1022.1
17983 kPa	1022.1
18012 kPa	1022.1
18047 kPa	1022.2
18076 kPa	1022.1
18105 kPa	1022.1
18142 kPa	1022.1
18171 kPa	1022.2
18200 kPa	1022.2
18230 kPa	1022.1
18265 kPa	1022.3
18295 kPa	1022.3
18325 kPa	1022.2
18360 kPa	1022.2
18390 kPa	1022.2
18421 kPa	1022.4
18457 kPa	1022.4
18488 kPa	1022.2
18520 kPa	1022.4
18551 kPa	1022.4
18587 kPa	1022.4
18618 kPa	1022.4
18650 kPa	1022.6
18687 kPa	1022.5
18717 kPa	1022.5
18749 kPa	1022.7
18787 kPa	1022.6
18819 kPa	1022.6
18850 kPa	1022.5
18887 kPa	1022.5
18919 kPa	1022.7
18951 kPa	1022.6
